Reference: patent publication US10167272B2, “Muscarinic agonists” (Heptares Therapeutics Limited, priority 2015, dated 2019)
Like-named read-outs stand apart in the source and are kept apart here.

Columns and labels:
[1] = target: T1, human muscarinic M1 receptor (Homo sapiens, UniProt P11229); experiment: Alphascreen Surefire phospho-ERK1/2 functional assay, M1; format: cell-based; conditions: phospho-ERK1/2; for EC50 / % Emax cf. ACh (M1): CHO cells stably expressing human M1; for EC50: read-out: pEC50 M1 (converted); for Emax: CHO, read-out: % Emax cf. ACh (M1), CHO cells stably expressing human M1; for Emax / % Emax cf. ACh (M1): relative to ACh
T1 sequence (P11229 1-460): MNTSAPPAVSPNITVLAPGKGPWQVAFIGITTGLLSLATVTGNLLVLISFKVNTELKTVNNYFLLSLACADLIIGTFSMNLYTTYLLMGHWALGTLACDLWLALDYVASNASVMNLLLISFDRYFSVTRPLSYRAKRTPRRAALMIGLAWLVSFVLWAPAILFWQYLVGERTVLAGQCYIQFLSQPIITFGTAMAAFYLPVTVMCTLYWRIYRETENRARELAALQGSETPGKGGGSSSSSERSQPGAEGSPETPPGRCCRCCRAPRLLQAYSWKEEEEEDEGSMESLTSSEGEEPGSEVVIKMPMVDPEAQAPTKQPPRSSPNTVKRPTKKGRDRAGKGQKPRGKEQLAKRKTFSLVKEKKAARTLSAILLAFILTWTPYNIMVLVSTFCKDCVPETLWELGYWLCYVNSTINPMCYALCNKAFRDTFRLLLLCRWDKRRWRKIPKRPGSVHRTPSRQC
Procedure, shortened: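 CHO cells stably expressing human M1, M2 or M3 receptor, serum-starved overnight, were stimulated with agonist for 5 min at 37 °C. Cells were then lysed and ERK1/2 phosphorylation detected by AlphaScreen SureFire.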

[2] = target: T2, human muscarinic M2 receptor (Homo sapiens, UniProt P08172); experiment: Alphascreen Surefire phospho-ERK1/2 functional assay, M2; format: cell-based; conditions: for EC50: CHO cells stably expressing human M2, read-out: pEC50 M2 (converted); for Emax: CHO, read-out: % Emax cf. ACh (M2), CHO cells stably expressing human M2, relative to ACh
T2 sequence (P08172 1-466): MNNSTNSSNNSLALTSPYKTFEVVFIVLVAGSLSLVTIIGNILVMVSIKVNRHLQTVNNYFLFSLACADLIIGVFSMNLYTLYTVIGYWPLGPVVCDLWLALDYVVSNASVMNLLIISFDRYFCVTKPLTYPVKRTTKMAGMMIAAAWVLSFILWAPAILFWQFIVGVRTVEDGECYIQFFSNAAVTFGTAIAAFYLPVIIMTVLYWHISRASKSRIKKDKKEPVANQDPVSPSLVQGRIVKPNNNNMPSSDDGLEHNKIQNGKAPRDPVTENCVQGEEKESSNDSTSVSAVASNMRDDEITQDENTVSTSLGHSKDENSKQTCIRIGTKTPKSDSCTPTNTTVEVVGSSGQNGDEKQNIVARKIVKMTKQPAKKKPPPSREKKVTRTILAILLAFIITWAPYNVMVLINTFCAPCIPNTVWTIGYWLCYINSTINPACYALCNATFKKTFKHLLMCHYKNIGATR
Procedure: (§1) ERK1/2 phosphorylation is a downstream consequence of both Gq/11 and Gi/o protein coupled receptor activation, making it highly suitable for the assessment of M1, M3 (Gq/11 coupled) and M2, M4 receptors (Gi/o coupled), rather than using different assay formats for different receptor subtypes. CHO cells stably expressing the human muscarinic M1, M2, M3 or M4 receptor were plated (25K/well) onto 96-well tissue culture plates in MEM-alpha+10% dialysed FBS. Once adhered, cells were serum-starved overnight. Agonist stimulation was performed by the addition of 5 μL agonist to the cells for 5 min (37° C.). Media was removed and 50 μL of lysis buffer added. After 15 min, a 4 μL sample was transferred to 384-well plate and 7 μL of detection mixture added.

[3] = target: T3, human muscarinic M3 receptor (Homo sapiens, UniProt P20309); experiment: Alphascreen Surefire phospho-ERK1/2 functional assay, M3; format: cell-based; conditions: phospho-ERK1/2; for EC50: CHO cells stably expressing human M3, read-out: pEC50 M3 (converted); for Emax: CHO, read-out: % Emax cf. ACh (M3), CHO cells stably expressing human M3, relative to ACh
T3 construct: expressed in transfected cells
Procedure: as §1

[4] = target: T4, human muscarinic M4 receptor (Homo sapiens, UniProt P08173); experiment: Alphascreen Surefire phospho-ERK1/2 functional assay, M4; format: cell-based; conditions: for Emax: CHO, read-out: % Emax cf. ACh (M4), CHO cells stably expressing human M4
T4 construct: expressed in transfected cells
T4 sequence (P08173 1-479): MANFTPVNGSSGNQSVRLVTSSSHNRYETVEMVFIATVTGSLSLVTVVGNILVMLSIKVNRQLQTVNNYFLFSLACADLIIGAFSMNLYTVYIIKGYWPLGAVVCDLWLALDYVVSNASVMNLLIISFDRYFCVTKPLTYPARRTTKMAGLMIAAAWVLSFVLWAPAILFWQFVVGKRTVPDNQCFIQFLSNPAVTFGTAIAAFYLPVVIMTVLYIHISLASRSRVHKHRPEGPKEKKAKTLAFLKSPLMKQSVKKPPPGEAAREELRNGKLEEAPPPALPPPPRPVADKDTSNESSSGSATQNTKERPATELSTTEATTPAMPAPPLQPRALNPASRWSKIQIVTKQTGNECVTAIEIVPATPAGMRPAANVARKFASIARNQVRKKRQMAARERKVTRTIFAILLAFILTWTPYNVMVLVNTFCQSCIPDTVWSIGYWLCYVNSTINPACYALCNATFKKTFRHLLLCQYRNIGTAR

rats = experiment: d-amphetamine-induced hyperactivity in rats; format: in vivo, rat; conditions: positive control dose, previously observed
Procedure: Effect of a Novel Test Compound and Xanomeline on d-Amphetamine-Induced Hyperactivity in Rats
The aim of the study is to examine the effect of a novel test compound on d-amphetamine induced hyperactivity in rats. Schizophrenia is a complex multifactorial disease that cannot be fully represented by a single experimental procedure. Antipsychotic-like behaviour was assessed in rats by the inhibition of hyperactivity (or hyperlocomotion) elicited by d-amphetamine. This procedure is sensitive to clinically relevant dopamine receptor antagonists and is therefore considered suitable for comparing muscarinic agonists that influence dopaminergic signalling. […] Statistical analysis typically involved three-way analysis of covariance or robust regression with treatment, day and rack as factors and activity during the 30 minutes prior to treatment as a covariate, followed by appropriate multiple comparison tests. A P value of <0.05 was considered statistically significant and is marked accordingly in all subsequent figures.

[5] = phospho-ERK1/2, relative to ACh
[6] = CHO cells stably expressing human M4, phospho-ERK1/2, read-out: pEC50 M4 (converted)

T3 sequence (P20309 whole entry): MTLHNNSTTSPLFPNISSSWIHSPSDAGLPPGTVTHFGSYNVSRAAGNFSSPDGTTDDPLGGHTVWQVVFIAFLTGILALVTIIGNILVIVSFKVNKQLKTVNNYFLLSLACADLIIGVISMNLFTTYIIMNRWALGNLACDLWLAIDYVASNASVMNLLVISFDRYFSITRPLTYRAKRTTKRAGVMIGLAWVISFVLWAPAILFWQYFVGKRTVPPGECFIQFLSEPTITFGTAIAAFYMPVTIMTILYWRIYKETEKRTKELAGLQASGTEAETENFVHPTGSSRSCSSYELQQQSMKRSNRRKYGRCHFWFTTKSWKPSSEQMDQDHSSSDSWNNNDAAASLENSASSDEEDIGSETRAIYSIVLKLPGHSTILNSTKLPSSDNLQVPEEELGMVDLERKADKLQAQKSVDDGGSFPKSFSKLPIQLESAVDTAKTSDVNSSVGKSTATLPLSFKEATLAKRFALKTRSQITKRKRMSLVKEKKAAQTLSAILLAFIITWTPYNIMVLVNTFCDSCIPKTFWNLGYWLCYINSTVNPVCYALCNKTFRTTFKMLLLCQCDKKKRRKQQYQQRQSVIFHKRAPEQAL

Row | Structure (SMILES) | EC50 [1] [nM] | Emax [1] [%] | EC50 [2] [µM] | Emax [2] [%] | EC50 [3] [µM] | Emax [3] [%] | Emax [4, 5] [%] | EC50 [4, 6] [nM] | % Emax cf. ACh (M1) [1] [%] | % Emax cf. ACh (M4) ([4]; CHO cells stably expressing human M4, phospho-ERK1/2, relative to ACh) [%] | % Emax cf. ACh (M1) ([1]; listed as 2-21 isomer 2) [%] | EC50 ([4]; pEC50 M4) [nM] | d-amphetamine induced hyperactivity (rats)
1 | CCOC(=O)N1CCC2(CC(N3CCC(N(CCF)Cc4cnco4)CC3)C2)C1 (single isomer, unassigned) [2-61 Isomer 2] | > 20000 | 21 | > 20 | 52 | > 20 | 65 | 101 |  |  |  |  | 39.8 | 
2 | CCOC(=O)N1CCC2(CC(N3CCC(N(Cc4cnco4)CC(F)(F)F)CC3)C2)C1 (single isomer, unassigned) [2-62 Isomer 2] | 1000 | 85 | > 20 | 12 | > 20 | 11 | 106 | 20 |  |  |  |  | 
3 | CCOC(=O)N1CCC2(CC(N3CCC(C(C)(C)N(CC)C(C)=O)CC3)C2)C1 (single isomer, unassigned) [2-64 Isomer 2] | 2510 | 46 | > 20 | 2 | > 20 | 4 | 128 | 31.6 |  |  |  |  | 
4 | CCOC(=O)N1CCC2(CC(N3CCC(C(C)n4cccn4)CC3)C2)C1 (single isomer, unassigned) [2-65 Isomer 2a] | 1000 |  | > 20 | 15 | > 20 | 15 |  | 200 | 43 | 45 |  |  | 
5 | CCCCCCOc1nsnc1C1=CCCN(C)C1 [xanomeline] |  |  |  |  |  |  |  |  |  |  |  |  | significantly reduce

More lines, main results first:

Row | EC50 [1] [nM] | Emax [1] [%] | EC50 [2] [µM] | Emax [2] [%] | EC50 [3] [µM] | Emax [3] [%] | Emax [4, 5] [%] | EC50 [4, 6] [nM] | % Emax cf. ACh (M1) [1] [%] | % Emax cf. ACh (M4) ([4]; CHO cells stably expressing human M4, phospho-ERK1/2, relative to ACh) [%] | % Emax cf. ACh (M1) ([1]; listed as 2-21 isomer 2) [%] | Structure (SMILES) | EC50 ([4]; pEC50 M4) [nM] | d-amphetamine induced hyperactivity (rats)
6 | > 20000 | 59 | > 20 | 17 | > 20 | 8 | 76 | 39.8 |  |  |  | CCOC(=O)N1CCC2(CC(N3CCC(OC(C)c4ccccc4)CC3)C2)C1 (single isomer, unassigned) [2-66 Isomer 2] |  | 
7 | > 20000 | 19 | > 20 | 2 | > 20 | 2 | 55 | 31.6 |  |  |  | CCOC(=O)N1CCC2(CC(N3CCC(SCc4ccccc4)CC3)C2)C1 (single isomer, unassigned) [2-67 Isomer 2] |  | 
8 | 316 | 42 | > 20 | 29 | > 20 | 37 | 94 | 31.6 |  |  |  | CCN(C(C)=O)C1CCN(C2CCC3(C2)CN(C(=O)OC)C3)CC1 (single isomer, unassigned) [3-2 Isomer 2] |  | 
9 | > 20000 | 18 | > 20 | 3 | > 20 | 21 | 93 | 3.98 |  |  |  | CCOC(=O)N1CC2(CCC(N3CCC(N(CC)C(C)=O)CC3)C2)C1 (single isomer, unassigned) [3-3 Isomer 2] |  | 
10 | 63.1 |  | > 20 | 18 | > 20 | 22 |  | 158 |  |  | 89 | CCOC(=O)N1CCC2(CC(N3CCC(N(CC4(C)CCC4)C(C)=O)CC3)C2)C1 (single isomer, unassigned) [Example 2-21 Isomer 2] |  | 
